pIC50: −log10 of the molar value.
How the values were obtained:
IL-17F [1] = test: TH17 cytokine inhibition as measured by ELISA (IL-17F); format: cell-based; conditions: 120 h; human CD4+ T cells differentiated to TH17 over 5 days, supernatant ELISA, vs DMSO
Experimental: (§1) Peripheral blood mononuclear cells (PBMCs) were sourced from freshly prepared leukocyte enriched plasma (buffy coat) from healthy volunteers from which PBMCs were isolated by density gradient centrifugation using Ficoll-Paque™ PLUS (GE Healthcare). Naïve CD4+ T cells were isolated using the Naïve CD4+ T cell Isolation Kit II (Miltenyi Biotec) as per manufacturer's instructions. CD4+ T cells were plated at 5×10^4 cells/well in 96 well plates pre-coated with immobilized human (h)-αCD3 antibody (eBioscience) then differentiated to TH17 cells using h-αCD28, h-αIFN-γ, h-αIL-4, h-IL-6, h-IL-23, […], h-TGF-β1 (eBioscience) and maintained in a cell culture incubator at 37° C. with 5% CO2 in TexMACS Medium (Miltenyi Biotec) supplemented with 1% Penicillin/Streptomycin (Lonza) over 5 days.
(§2) Human CD4+ T cells were differentiated to TH17 cells as described in the presence or absence of various concentrations of compounds in a final concentration of 0.1% DMSO in TexMACS medium. Supernatants were collected and stored at −20° C. until they were to be assayed for IL-17A, IL-17F, IL-17AF, IL-21 and/or IL-22 levels as determined by Ready-Set-Go ELISA kits (eBioscience) as per manufacturer's instructions. Endpoint absorbance was read at 450 nm and 570 nm according to manufacturer's instructions (eBioscience) using a microplate reader (Perkin Elmer). The percentage of cytokine inhibition was calculated with reference to DMSO treated cells and the IC50s were determined by GraphPad Prism software and presented in the table below.

FOXP3 = test: Real-time qRT-PCR gene expression in TH17 cells (FOXP3); format: cell-based, human; set-up: key: A: No change in gene expression observed relative to DMSO treated TH17 cells; B: Decreased gene expression observed relative to DMSO treated TH17 cells; C: Increased gene expression observed relative to DMSO treated TH17 cells; conditions: mRNA
Experimental: as §1
(§3) RNA was isolated from TH17 cells and cDNA was synthesized using the Verso cDNA kit (Thermo Scientific) as per manufacturer's instructions. IL-17A, IL-17F, IL-21, IL-22, G-CSF, IL-23R and FOXP3 gene expression were determined for compound treated and untreated TH17 cell samples using Solaris qPCR Gene expression assays (Thermo Scientific) with an iCycler iQ Real-Time PCR Detection System (Bio-Rad). Individual gene expression was normalized to a panel of six reference genes (ACTB, TBP, HPRT1, PGK1, TFRC and PPIA) (Thermo Scientific) and analyzed by REST 2009 (Qiagen) in accordance to MIQE guidelines (Bustin, et al. (2009) Clin. Chem. 55, 611-622), which is hereby incorporated by reference in its entirety). The effects of compounds on TH17 cytokine mRNA levels are presented as fold change in gene expression of compound treated TH17 cells relative to DMSO treated cells in the table below.

IL-17A [2] = test: Real-time qRT-PCR gene expression in TH17 cells (IL-17A); format: cell-based, human; set-up: key: A: No change in gene expression observed relative to DMSO treated TH17 cells; B: Decreased gene expression observed relative to DMSO treated TH17 cells; C: Increased gene expression observed relative to DMSO treated TH17 cells; conditions: mRNA
Experimental: as §1, §3

IL-21 = test: Real-time qRT-PCR gene expression in TH17 cells (IL-21); format: cell-based, human; set-up: key: A: No change in gene expression observed relative to DMSO treated TH17 cells; B: Decreased gene expression observed relative to DMSO treated TH17 cells; C: Increased gene expression observed relative to DMSO treated TH17 cells; conditions: mRNA
Experimental: as §1, §3

IL-22 [3] = test: TH17 cytokine inhibition as measured by ELISA (IL-22); format: cell-based; conditions: 120 h; human CD4+ T cells differentiated to TH17 over 5 days, supernatant ELISA, vs DMSO
Experimental: as §1, §2

IL-22 [4] = test: Real-time qRT-PCR gene expression in TH17 cells (IL-22); format: cell-based, human; set-up: key: A: No change in gene expression observed relative to DMSO treated TH17 cells; B: Decreased gene expression observed relative to DMSO treated TH17 cells; C: Increased gene expression observed relative to DMSO treated TH17 cells; conditions: mRNA
Experimental: as §1, §3

[5] = TH17 cell viability (Prestoblue); format: cell-based; set-up: concentration or dose not given beside the values; conditions: human; percentage of DMSO treated cells; read-out: % viability of compound treated TH17 cells
Experimental: as §1
Cells were assayed for viability in the presence or absence of compound using Prestoblue® Cell Viability Reagent (Life Technologies) as per manufacturer's instructions after 30 minutes incubation of TH17 cells with reagent. Absorbance was measured at 570 nm and 600 nm using a microplate reader (Perkin Elmer) and data were analyzed as per manufacturer's instructions. Cell viability was expressed as a percentage of DMSO treated cells.

IL-23R = test: Real-time qRT-PCR gene expression in TH17 cells (IL-23R); format: cell-based, human; set-up: key: A: No change in gene expression observed relative to DMSO treated TH17 cells; B: Decreased gene expression observed relative to DMSO treated TH17 cells; C: Increased gene expression observed relative to DMSO treated TH17 cells; conditions: mRNA
Experimental: as §1, §3

TH17 cells = test: TH17 cellular proliferation (Prestoblue); format: cell-based, human; conditions: 3 μM compound, after 5 day TH17 differentiation, relative to DMSO treated cells
Experimental: as §1
Cellular proliferation was assessed in the presence or absence of 3 μM compound using Prestoblue® Cell Viability Reagent (Life Technologies) as per manufacturer's instructions using absorbance as the output measured by a microplate reader (Perkin Elmer) after 30 minutes of incubation of cells and reagent. A standard curve developed by plotting varying cell numbers versus absorbance was used to assess differences in cellular proliferation between compound treated or untreated cells after the 5 day TH17 differentiation period.

human RORγ LBD = human RORγ LBD (Homo sapiens (Human), UniProt P51449); test: RORγ LBD binding (Human RORγ Assay System, INDIGO Biosciences)
Sequence of human RORγ LBD (P51449 269-508): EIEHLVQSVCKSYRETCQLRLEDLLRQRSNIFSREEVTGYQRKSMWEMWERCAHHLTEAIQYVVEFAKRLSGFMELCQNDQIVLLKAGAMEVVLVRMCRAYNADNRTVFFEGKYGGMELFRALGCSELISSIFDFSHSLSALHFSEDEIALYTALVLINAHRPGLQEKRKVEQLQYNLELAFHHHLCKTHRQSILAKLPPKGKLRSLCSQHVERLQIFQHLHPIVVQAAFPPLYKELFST
Experimental: Compound binding to the human RORγ LBD was assessed using the Human RORγ Assay System (INDIGO Biosciences Inc.) as per manufacturer's instructions.

IL-17A [6] = test: TH17 cytokine inhibition as measured by ELISA (IL-17A); format: cell-based; conditions: 120 h; human CD4+ T cells differentiated to TH17 over 5 days, supernatant ELISA, vs DMSO
Experimental: as §1, §2

IL-17AF = test: TH17 cytokine inhibition as measured by ELISA (IL-17AF); format: cell-based; conditions: 120 h; human CD4+ T cells differentiated to TH17 over 5 days, supernatant ELISA, vs DMSO
Experimental: as §1, §2

IL-17F [7] = test: Real-time qRT-PCR gene expression in TH17 cells (IL-17F); format: cell-based, human; set-up: key: A: No change in gene expression observed relative to DMSO treated TH17 cells; B: Decreased gene expression observed relative to DMSO treated TH17 cells; C: Increased gene expression observed relative to DMSO treated TH17 cells; conditions: mRNA
Experimental: as §1, §3

| SMILES | pIC50 (IL-17F [1]) | Change in gene expression of compound treated TH17 cells relative to DMSO treated cells, FOXP3 (FOXP3) | Change in gene expression of compound treated TH17 cells relative to DMSO treated cells, IL-17A (IL-17A [2]) | Change in gene expression of compound treated TH17 cells relative to DMSO treated cells, IL-21 (IL-21) | pIC50 (IL-22 [3]) | Change in gene expression of compound treated TH17 cells relative to DMSO treated cells, IL-22 (IL-22 [4]) | viability [5] [%] | Change in gene expression of compound treated TH17 cells relative to DMSO treated cells, IL-23R (IL-23R) | % change in TH17 cell number (TH17 cells) | pIC50 (human RORγ LBD) | pIC50 (IL-17A [6]) | pIC50 (IL-17AF) | Change in gene expression of compound treated TH17 cells relative to DMSO treated cells, IL-17F (IL-17F [7]) |
| --- | --- | --- | --- | --- | --- | --- | --- | --- | --- | --- | --- | --- | --- |
| CNC(=O)c1ccc2c(c1)CCCN2Cc1ccc(C(O)(C(F)(F)F)C(F)(F)F)cc1 [Example 3, 1-(4-(1,1,1,3,3,3-hexafluoro-2-hydroxypropan-2-yl)benzyl)-N-methyl-1,2,3,4-tetrahydroquinoline-6-carboxamide] | > 5.00 | A | A | A | > 5.00 | A | > 80 | A | B (≦50% decrease in cell proliferation relative to DMSO treated TH17 cells) | > 5.00 | > 5.00 | > 5.00 | A |
| CN(C)C(=O)c1ccc2c(c1)CCCN2Cc1ccc(C(O)(C(F)(F)F)C(F)(F)F)cc1 [Example 4, 1-(4-(1,1,1,3,3,3-hexafluoro-2-hydroxypropan-2-yl)benzyl)-N,N-dimethyl-1,2,3,4-tetrahydroquinoline-6-carboxamide] | > 5.00 | A | A | A | > 5.00 | A | > 80 | A | B (≦50% decrease in cell proliferation relative to DMSO treated TH17 cells) | > 5.00 | > 5.00 | > 5.00 | A |
